The record followed here is article PMC10776578, “Epstein-Barr virus-driven B cell lymphoma mediated by a direct LMP1-TRAF6 complex” (Nature Communications, 2024).

In experiment [1] the test system is His-TRAF6_310-522. Briefly: Peptide array, TRAF6 binding. More on the design: species or system human; key to T6 interaction (peptide array): +: Interaction with TRAF6 or TRAF2 isindicated according to the results shown in Figure 1c.; -: Interaction with TRAF6 or TRAF2 isindicated according to the results shown in Figure 1c. The conditions noted are these: for T6 interaction (peptide array): immobilized peptide, 10 µg per mL His-TRAF6, 4 h RT, two independent experiments; for TRAF6 binding to immobilized peptide (in words): peptide array. As to the method:
(§1) Arrays were synthesized on a Multipep Synthesizer (Intavis Bioanalytical Instruments) on derivatized cellulose (amino-Peg500 UC540, acid-hardened, loading 400 nmol per cm^2, Intavis). After peptides were spot-assembled and deprotected, membranes were washed extensively with dichloromethane, N-methylpyrrolidone, and ethanol and stored at −20 °C until use. Prior to use, filters were rinsed for 10 sec in ethanol and washed three times for ten min each at 50 rpm in PBST (PBS, 0.1% Tween-20) under gentle rocking. Filters were blocked by incubation in PBST supplemented with 5% (w/v) nonfat dry milk powder for 2 h at RT and three washing steps in PBST for 20 min. Subsequently, nonspecific antibody binding sites were blocked by incubation of the filters at 4 °C overnight with either TRAF6 (goat α-TRAF6 C-20 #sc-6223, Santa Cruz Biotech.) or TRAF2 primary antibody (rabbit α-TRAF2 C-20, #sc-876, Santa Cruz Biotech.), diluted at 1:1000 in PBS supplemented with 5% (w/v) nonfat dry milk powder. Following three washing steps with PBS, the filters were incubated with horseradish peroxidase-conjugated α-goat IgG (Dianova, #305-035-003) or α-rabbit IgG (Cell signalling Technology, #7074S) secondary antibody, diluted 1:5000 in PBS supplemented with 5% (w/v) nonfat dry milk powder. Filters were developed with ECL and no nonspecific antibody binding was detected. To detect TRAF6 or TRAF2 binding to the immobilized peptides, filters were washed with PBST and subsequently incubated with 10 µg per mL recombinant purified His-TRAF6 or His-TRAF2 protein in PBST supplemented with 5% (w/v) nonfat dry milk powder for 4 h at RT. After washing the filters in PBST, TRAF protein binding was analyzed by incubation of the filters with TRAF6 (C-20, #sc-6223, Santa Cruz Biotech., used at 1:1000) or TRAF2 (C-20, #sc-876, Santa Cruz Biotech., used at 1:1000) primary and the respective Horseradish peroxidase-coupled secondary antibodies (Dianova, #305-035-003, used at 1:500, or Cell Signalling Technology, #7074, used at 1:5000). ECL signals were captured on X-ray films (Agfa Healthcare).

Experiment [2] relates to His-TRAF2_311-501. Kind of experiment: Peptide array, TRAF2 binding. More on the design: key to T2 interaction (peptide array): +: Interaction with TRAF6 or TRAF2 isindicated according to the results shown in Figure 1c.; -: Interaction with TRAF6 or TRAF2 isindicated according to the results shown in Figure 1c. The conditions noted are these: for T2 interaction (peptide array): immobilized peptide, 10 µg per mL His-TRAF2, 4 h RT, two independent experiments. Here is the method: as §1

Experiment [3] relates to His-TRAF6_310-522 (TRAF6). Kind of experiment: AlphaScreen PPI assay, TRAF6 binding to GST-LMP1/CD40/RANK proteins. Set-up: species or system human. The conditions noted are these: for Bmax (best-fit value): AlphaScreen signal. Here is the method:
AlphaScreen experiments were performed in 96- or 384-well plates (Perkin Elmer, OptiPlate). In both assay formats, His-TRAF and GST-LMP1, GST-CD40, or GST-RANK proteins were incubated together in 40 µL of PBS (protein concentrations were calculated to the final reaction volume of 60 µL) supplemented with 0.5% BSA (Sigma, #A7030) and 0.1% Tween-20 (AppliChem, #A4974), for 1 h at room temperature (RT). If not indicated otherwise, standard protein concentrations were 300 nM for His-TRAF proteins and 100 nM for GST-LMP1 proteins. Ni-NTA-acceptor (Perkin Elmer, #6760619 C) and GST-acceptor (Perkin Elmer, # 6765300) beads were added each to a final concentration of 1–4 µg per mL in a final reaction volume of 60 µL and incubated for 1 h at RT in the dark. AlphaScreen PPI signals were measured in a CLARIOstar reader (BMG Labtech GmbH).
All statistical analyses were performed with Prism v10.1.0 software (GraphPad Software Inc.). Two-way ANOVA was performed on experiments with two factors of variance (Figs. 1e and 3a). Ordinary one-way ANOVA with multiple comparisons was performed on experiments with one factor of variance (Figs. 2a–e, 3c, 6b, 7b, 8c and Supplementary Fig. 2a). For KD determination, the data from each experiment were cleaned for the hook effect (signal depletion by oversaturation of the beads) and analyzed using the equation one site-specific binding with hill slope (Figs. 1f–i, and Supplementary Fig. 1f). The IC50 was determined using the log(inhibitor) vs. response – variable slope (four parameters) equation (Fig. 8b and d). A paired t-test was used for matched samples (Fig. 8b) and an unpaired t-test was used for unpaired samples (Figs. 7c and 8e).
Background: In Alpha technology, singlet oxygen from a donor bead excites a nearby acceptor bead.

Setting [4] is: source data, One site -- Specific binding with Hill slope.
Setting [5] is: source data, One site -- Specific binding with Hill slope, concentrations c H-T6 in nM, read-out: Kd (best-fit value).

Substitutions are numbered along the chain they refer to. “Also recorded” adds a separate entry of the source. Read-outs that look alike come from different tables or passages of the source. No end group written: not given here.

Turning to “2: CD40 230-259, A250xAxA (KQEPQEINFPDDLPGSNTAAAVAEALHGCQ; UniProt P25942 230-259, looked up, variant P250A Q252A T254A) [compound 2]”, the “T6 interaction (peptide array)” value in experiment [1] is “+”. The “T2 interaction (peptide array)” value in experiment [2] is “-”.

With “DDSLPHPQQATDDSGHESDSNSNEGRHHLL [peptide 6, LMP1 198-227]”, in experiment [1], the “T6 interaction (peptide array)” value is given as “-” and the “TRAF6 binding to immobilized peptide (in words)” value was “did not bind”. The “T2 interaction (peptide array)” value in experiment [2] is given as “+”. Also, in experiment [2] (peptide array), the “TRAF2 binding to immobilized peptide (in words)” value was “bound”.

Turning to “GSNTAAAVAEALHGCQPVTQEDGKESRISV [peptide 5, CD40 244-273, A250xAxA]”, the “T6 interaction (peptide array)” value in experiment [1] was “-”. Further, in experiment [2], the “T2 interaction (peptide array)” value is “-”.

“GSNTAAPVQETLHGCQPVTQEDGKESRISV [peptide 4, CD40 244-273]”: in experiment [1], the “T6 interaction (peptide array)” value was “-”. In addition, the “T2 interaction (peptide array)” value in experiment [2] is on record as “+”.

“KAEAQAINFPDDLPGSNTAAPVQETLHGCQ [peptide 3, CD40 230-259, A231xAxA]”: the “T6 interaction (peptide array)” value in experiment [1] is on record as “-”. For the same molecule, the “T2 interaction (peptide array)” value in experiment [2] was “+”.

Turning to “KQEPQEINFPDDLPGSNTAAPVQETLHGCQ [peptide 1, CD40 amino acids 230-259]”, the “T6 interaction (peptide array)” value in experiment [1] is “+”. The “T2 interaction (peptide array)” value in experiment [2] was “+”.

Consider “PHLPTLLLGSSGSGGDDDDPHGAVALAYYD [peptide 12, LMP1 357-386, A379xAxA]”, for which, in experiment [1], the “T6 interaction (peptide array)” value is “-” and the “TRAF6 binding to immobilized peptide (in words)” value is on record as “abolished the direct TRAF6 binding”. Moreover, the “T2 interaction (peptide array)” value in experiment [2] was “-”.

With “PHLPTLLLGSSGSGGDDDDPHGPVQLSYYD [peptide 11, LMP1 357-386 (30mer)]”, in experiment [1], the “T6 interaction (peptide array)” value is given as “+” and the “TRAF6 binding to immobilized peptide (in words)” value is “efficiently captured”. Moreover, in experiment [2], the “T2 interaction (peptide array)” value was “-”.

As to “RANK E346Q (GGGPYAQGEDARMLSLVSKTEIEEDSFRQMPTQDEYMDRPSQ; also: GST fusion left off, end not given here)”, in experiment [3] (setting [4]), the “h (Hill slope, best-fit value)” value is 1.998 and the “Bmax (best-fit value)” value is listed as 1302008.

Regarding “RANK: recombinant GST-RANK314-355 (GGGPYAQGEDARMLSLVSKTEIEEDSFRQMPTEDEYMDRPSQ; also: GST fusion left off, end not given here)”, in experiment [3] (setting [4]), the “h (Hill slope, best-fit value)” value amounted to 2.024 and the “Bmax (best-fit value)” value is listed as 1370733. Also, in experiment [3] (setting [5]), the Kd (as a rule, a measure of binding affinity in units of concentration) is 7.74 nM.

For “… GDDDDPHGPVQLSAAD [peptide 9, LMP1 371-386, A384A385]”, in experiment [1], the “T6 interaction (peptide array)” value is reported as “-” and the “TRAF6 binding to immobilized peptide (in words)” value was “abolished the direct TRAF6 binding”. Also, in experiment [2], the “T2 interaction (peptide array)” value is reported as “-”.

For the molecule “… GDDDDPHGPVQLSYYD [peptide 8, LMP1 371-386 (16mer)]”, in experiment [1], the “T6 interaction (peptide array)” value was “+” and the “TRAF6 binding to immobilized peptide (in words)” value is listed as “efficiently captured”. Besides, the “T2 interaction (peptide array)” value in experiment [2] is given as “-”.

B1: CD40: recombinant GST-CD40_216-277 (protein)
chain: KKVAKKPTNKAPHPKQEPQEINFPDDLPGSNTAAPVQETLHGCQPVTQEDGKESRISVQERQ
modifications: left off: GST, end not stated, kept
Turning to B1, in experiment [3] (setting [4]), the “h (Hill slope, best-fit value)” value worked out at 2.083 and the “Bmax (best-fit value)” value is 1455821.

B2: CD40 E235Q (protein)
chain: B1 chain with E20Q
modifications: left off: GST, end not stated, kept
As for B2, in experiment [3] (setting [4]), the “h (Hill slope, best-fit value)” value is on record as 1.924 and the “Bmax (best-fit value)” value is reported as 1053663.

B3: LMP1 Q381E (protein)
chain: LIWMYYHGQRHSDEHHHDDSLPHPQQATDDSGHESDSNSNEGRHHLLVSGAGDGPPLCSQNLGAPGGGPDNGPQDPDNTDDNGPQDPDNTDDNGPHDPLPQDPDNTDDNGPQDPDNTDDNGPHDPLPHSPSDSAGNDGGPPQLTEEVENKGGDQGPPLMTDGGGGHSHDSGHGGGDPHLPTLLLGSSGSGGDDDDPHGPVELSYYD
modifications: left off: GST, end not stated, kept
Consider B3, for which, in experiment [3] (compared with LMP1 wild-type), the “fold enhanced affinity for TRAF6” value is recorded as 5.0 -fold. In experiment [3] (setting [4]), the “h (Hill slope, best-fit value)” value is on record as 1.772 and the “Bmax (best-fit value)” value came to 1507585.

B4: LMP1 Y384D (protein)
chain: B3 chain with E201Q, Y204D
modifications: left off: GST, end not stated, kept
Turning to B4, the “TRAF6 binding/affinity (in words)” value in experiment [3] (AlphaScreen PPI) is reported as “TRAF6 binding was not abolished”. The “reduction of affinity to TRAF6 (factor)” value in experiment [3] (compared with the respective wild-type receptor) stood at 1.8. In addition, the Kd in experiment [3] (one site, specific binding with Hill slope, c H-T6 in nM, hook effect data excluded, 95% CI A204xAxA 52,94 to 93,02, Y384D 72,59 to 190,2, read-out: Kd) came out at 131 nM. The “h (Hill slope)” value in experiment [3] (one site, specific binding with Hill slope, hook effect data excluded, Std. Error A204xAxA 0.2126, Y384D 0.1712) is 1.019. For the same molecule, the Bmax in experiment [3] (one site, specific binding with Hill slope, hook effect data excluded, Std. Error A204xAxA 67298, Y384D 78225) turned out to be 1231417.

B5: LMP1 Y384F (protein)
chain: B3 chain with E201Q, Y204F
modifications: left off: GST, end not stated, kept
Regarding B5, in experiment [3] (AlphaScreen PPI), the “TRAF6 binding/affinity (in words)” value is given as “improved the affinity of LMP1 for TRAF6; also recorded: higher affinity of Y384F to TRAF6 as compared to wild-type LMP1”. The equilibrium dissociation constant (Kd) was found to be 21.7 ± 6.6 nM in experiment [3] (AlphaScreen PPI, His-TRAF6_310-522 titrated with GST-receptor protein, PBS 0.5% BSA 0.1% Tween-20, 1 h RT, one site-specific binding with hill slope, mean ± SD, n = 3 (CD40), 4 (LMP1), 6 (RANK), read-out: KD of TRAF6 interaction) and 21.7 nM in experiment [3] (setting [5]). In experiment [3] (setting [4]), the “h (Hill slope, best-fit value)” value stood at 1.321. Besides, the “Bmax (best-fit value)” value in experiment [3] (setting [4]) came to 1186145.
